Data from patent publication US8993622B2, “Antiviral compounds” (Eirium AB, priority 2010, dated 2015).
pIC50: −log10 of the molar value.

Legend:
Ad11p = experiment: Quantitative real-time PCR of adenovirus DNA replication in A549 cells (Ad11p); format: cell-based, human adenovirus
Experimental: Approximately 1×10^5 A549 cells were seeded in 24-well plates (Nunc) on the day before infection. On the day of infection, the cells in one well were counted to establish the amount of virions to be added. The growth medium was removed and compound and virus were added simultaneously to the cells in 700 μl DMEM with 0.75 g/l NaHCO3, 20 mM HEPES, 1×PEST, and 1% FBS. Compounds were added in concentrations ranging from 0.5 μM to 15 μM. The final concentration of DMSO was less than 1% in all samples. One pg of Ad virions was added per cell. The plate was incubated at 37° C. in 5% CO2 and 24 h after infection the cells were harvested, washed once, and resuspended in PBS. DNA was prepared from the samples using the QIAamp DNA Blood Mini Kit (QIAGEN, Solna, Sweden) according to the manufacturer's instructions. The design of primers and probes for analysis of various Ad types representing different adenovirus species with quantitative PCR has been described previously (Allard et al. 2001. Rapid typing of human adenoviruses by a general PCR combined with restriction endonuclease analysis. Journal Clinical Microbiology 39:498-505). Briefly, quantitative real-time PCR was carried out using a degenerate primer pair, Kadgen1 (forward)—Kadgen 2 (reverse) (5′-CWT ACA TGC ACA TCK CSG G-3′—SEQ ID NO:1, and 5′-CRC GGG CRA AYT GCA CCA G-3′—SEQ ID NO:2, respectively); DNA technology A/S, Aarhus, Denmark). This primer pair is specific for the conserved region of the Ad hexon gene and can detect all human Ads. Different FAM-TAMRA probes were used to quantitate Ads from different species: AdB1B2 (5′-6-FAM-AGGATGCTTCGGAGTACCTGAGTCCGG-TAMRA-3′—SEQ ID NO:3) for Ad11p (11) and AdC (5′-6-FAM-AGGACGCCTCGGAGTACCTGAGCCCCG-TAMRA-3′—SEQ ID NO:4) for Ad 5 (all from Applied Biosystems, Cheshire, UK). For Ads from species A, D, E and F the probe AdDF (5′-6-FAM-CCGGGCTCAGGTACTCCGAGGCGTCCT-3′—SEQ ID NO:5) was used (Applied Biosystems). Standard curves ranging from 5 to 5×10^5 genome copies were generated by serial dilution of known amounts of full-length Ad5 or Ad11 DNA. The Ad5 DNA standard was used for the AdDF probe system. […] The program for the real-time PCR was: 2 min at 50° C. to activate UNG, followed by amplification and quantitation (10 min at 95° C. and 40 cycles of 15 sec at 95° C., 1 min at 60° C.). […] Real-time PCR was performed in an ABI PRISM 7700 Sequence Detector (Applied Biosystems) and analyzed with Sequence Detector v1.7a software.

[1] = Toxicity in the A549 cell system (XTT assay); format: cell-based; conditions: human, A549 cells, read-out: 50% cytotoxic concentration (CC50)
Experimental: FIG. 3. Titration of the effect of A02 on Ad5, Ad11p and the toxic effect in A549 cells following 24 h incubation with virus and/or compound A02. […] IC50 is the concentration at which the Ad replication is inhibited by 50% as determined by qPCR and CC50 is the concentration at which the cytotoxicity is 50%, i.e. 50% of the cells are viable, as determined by the XTT assay. Error bars represent the standard deviation of the means from three independent duplicate experiments.

[2] = system: Ad5 binding to A549 cells; experiment: Binding of 35S-labelled Ad5 virions to A549 cells; format: cell-based, human adenovirus; conditions: 15 μM
Experimental: A549 cells were washed twice and detached from the culture flask with 0.05% EDTA in PBS, resuspended in culture medium, and allowed to recover for 1 h at 37° C. The cell suspension was centrifuged at room temperature at 450 g for 5 min and resuspended in PBS containing 1% FBS and 0.01% NaN3 (PBS-FBS-NaN3); 200,000 cells per well were dispensed in a 96-well microtiter plate (Nunc). The plate was placed on ice and the compound was added to final concentrations of 5 μM and 15 μM. The final concentration of DMSO was less than 1% in all samples. Five pg […] Ad5 virions (with labeling done as described previously by Segerman et al. 2003 (Journal of Virology 77:1157-1162)) were added per cell and the plate was incubated on ice on a rocking platform for 1 h. Following incubation the cells were washed three times with PBS-FBS-NaN3, pelleted by centrifugation at 800 g for 5 min at 4° C. and resuspended in 100 μl PBS. The suspension was transferred to scintillation tubes containing 2 ml scintillation liquid (Wallac OptiPhase HiSafe 3, PerkinElmer) and cell-associated radioactivity was measured as counts per minute (cpm) using a liquid scintillation counter (Wallac 1409).

Ad11p hexon protein = experiment: FACS analysis of Ad11p hexon protein expression in A549 cells; format: cell-based, human adenovirus; conditions: 24 h
Experimental: FIG. 4. A. Binding of ^35S-labelled Ad5 to A549 cells in the presence of A02. Error bars represent the standard deviation of the means from three independent duplicate experiments. B. Flowcytometry assay detecting Ad5 (grey bars) and Ad11 (checkered bars) hexon protein following 24 h incubation with virus and compound A02. Error bars represent the standard deviation of the means from two independent duplicate experiments.
A binding assay using isotope-labeled virions was used to address whether the compound would prevent viral adhesion to host cells. At 15 μM, compound A02 has no effect on Ad5 binding to the surface of A549 cells (FIG. 4A). To further verify inhibition of viral replication, the effect on the expression of the most abundant viral structural protein (hexon) in A549 cells was studied by FACS analysis.

cells = experiment: Cellular toxicity of select compounds (% dead cells, CC50); format: cell-based; conditions: 24 h

O=C(Nc1ccccc1C(=O)Nc1ccccc1C(=O)O)c1ccccc1 [Compound A02, 2-[[2-(Benzoylamino)benzoyl]amino]-benzoic acid]
selectivity index (SI=CC50/IC50) for Ad11p (Ad11p): 68 | pIC50 (Ad11p; Human adenovirus sp., 24 h, read-out: IC50 for Ad11p replication (QPCR)): 5.54 | inhibition at 5 µM (Ad11p; Human adenovirus sp., Ad11p (B2), 5 μM, read-out: % inhibition of DNA replication (SD)): 79% | inhibition at 15 µM (Ad11p; Human adenovirus sp., Ad11p (B2), 15 μM, read-out: % inhibition of DNA replication (SD)): 79% | CC50 at 24 h [1]: 199 µM | effect on Ad5 binding to the surface of A549 cells [2]: no effect | expression of Ad11p hexon protein (Ad11p hexon protein): inhibited by compound A02 in a dose-dependent manner | Toxicity at 30 μM (% dead cells after 24 h) (cells; 30 μM): 20 ± 7% | Toxicity at 60 μM (% dead cells after 24 h) (cells; 60 μM): 29 ± 3%
